Key:
NF-κB pathway = experiment: AD037 mRNA by quantitative PCR in THP-1 monocytes, LPS with dexamethasone or IKK-2 inhibitor (FIG. 80); assay type: cell-based, human; conditions: LPS, 2, 4 and 8 hours post stimulation
Procedure: The figure illustrates the basal AD037 expression in THP-1 monocytes in response to LPS (“LPS”), LPS and the glucocorticoid dexamethasone (“LP/Dex”), or LPS and the IKK-2 inhibitor BMS-345541 (“LPS/345541”), for 2 hours, 4 hours, and 8 afters post stimulation. Unstimulated THP-1 moncytes served as a control. […] Expression data was obtained by measuring the steady state AD037 mRNA levels by quantitative PCR using the PCR primer pair provided as SEQ ID NO:162 and 163 as described herein.
Moreover, in an effort to further confirm the NF-κB-dependent expression of AD037, two approaches were investigated. In the first approach, additional inhibitors of the NF-κB pathway were used to assess their affect on AD037 expression. Although it has other transcriptional effects, dexamethasone inhibits NF-κB activity via glucocorticoid receptor-mediated transrepression (Reichardt et al. (2001) EMBO J. 20:7168-7173). The compound 4(2′-aminoethyl)amino-1,8-dimethylimidazo(1,2-a) quinoxaline, is a selective IKK-2 inhibitor (International Publication No. WO 02/60386, Published Oct. 10, 2002; Burke et al. (2003) J. Biol. Chem. 278:1450-1456).

AD037 mRNA [1] = experiment: AD037 mRNA by RT-PCR in stimulated THP-1 human monocyte line; assay type: cell-based; conditions: THP-1 cells stimulated for 8, 24, or 48 hours; 100 ng/ml LPS, 10 ng/ml TNFα or 100 units/ml IFN-γ; FIG. 18
Procedure: Nonetheless, the following methods were used to assess the expression profile of the NFkB assocaited polypeptides of the present invention. Briefly, poly (A)^+ mRNA was isolated from THP-1 cells that were either unstimulated, or stimulated with 100 ng/ml LPS for two hours in the presence and absence of BMS-205820 (2 uM) using the Fast Track isolation kit (Invitrogen, Carlsbad, Calif.) according to the manufacturer's instructions. RNA quality and quantity were evaluated using UV spectrometry and capillary electrophoresis with the RNA 6000 Assay (Agilent). […]
PCR reactions were performed in a total volume of 40 ul containing master mix (SYBR Green I dye, 50 mM Tris-Cl pH 8.3, 75 mM KCl, DMSO, Rox reference dye, 5 mM MgCl2, 2 mM dNTP, I unit Platinum Taq High Fidelity enzyme), 0.5 uM each of forward and reverse gene-specific primers, and cDNA (8 ul of a 1:36 dilution of the first strand reaction mix). […] The data were analyzed using the TaqMan 5700 software with the threshold value set to 0.5. […]
The THP-1 human monocyte line was stimulated with 100 ng/ml LPS, 10 ng/ml TNFα (Peprotech, Rocky Hill, N.J.), or 100 units/ml interferon-γ (IFN-γ, Peprotech) for either 8, 24, or 48 hours. […] The levels of each NFkB associated polypeptide mRNA may be measured by RT-PCR analysis using the primers described herein for each gene. […]

AD037 mRNA [2] = experiment: AD037 mRNA by RT-PCR in stimulated synovial fibroblasts; assay type: cell-based; conditions: synovial fibroblasts, 1, 6, or 24 hours; TNFα, IL-1α, IL-17 10 ng/ml, IL-17B-Ig fusion protein 5 ng/ml; FIG. 20
Procedure: Nonetheless, the following methods were used to assess the expression profile of the NFkB assocaited polypeptides of the present invention. Briefly, poly (A)^+ mRNA was isolated from THP-1 cells that were either unstimulated, or stimulated with 100 ng/ml LPS for two hours in the presence and absence of BMS-205820 (2 uM) using the Fast Track isolation kit (Invitrogen, Carlsbad, Calif.) according to the manufacturer's instructions. RNA quality and quantity were evaluated using UV spectrometry and capillary electrophoresis with the RNA 6000 Assay (Agilent). Five-hundred nanograms of polyA RNA was used for first-strand cDNA synthesis using the SuperScriptTm First-Strand Synthesis System for RT-PCR (Invitrogen) according to the manufacturer's instructions with 250 ng of random hexamers.
PCR reactions were performed in a total volume of 40 ul containing master mix (SYBR Green I dye, 50 mM Tris-Cl pH 8.3, 75 mM KCl, DMSO, Rox reference dye, 5 mM MgCl2, 2 mM dNTP, I unit Platinum Taq High Fidelity enzyme), 0.5 uM each of forward and reverse gene-specific primers, and cDNA (8 ul of a 1:36 dilution of the first strand reaction mix). For tissue expression analyses, PCR reactions included 2 ul of cDNA derived from the Human Multiple Tissue cDNA panel I and Human Immune System MTC Panel (Clontech, Palo Alto, Calif.). The amplification program consisted of a 10 minute incubation at 95° C., followed by 40 cycles of incubations at 95° C. for 15 seconds, 60° C. for 1 minute. The amplification was followed by melting curve analysis at 60° C. to determine the specificity of the amplification reaction. A negative control without cDNA template was run to assess the overall specificity. The data were analyzed using the TaqMan 5700 software with the threshold value set to 0.5. The message levels of GAPDH were used to normalize the amounts of cDNA for each reaction.
Synovial fibroblasts were obtained from Cell Applications, INC. […] The levels of each NFkB associated polypeptide mRNA may be measured by RT-PCR analysis using the primers described herein for each gene. […]

Row | Molecule | LPS-induced AD037 expression (mRNA) (NF-κB pathway) | LPS-induced AD037 expression (mRNA) (NF-κB pathway; listed as 4(2′-aminoethyl)amino-1,8-dimethylimidazo(1,2-a) quinoxaline) | AD037 mRNA level (RT-PCR, normalized to GAPDH) (AD037 mRNA [1]) | AD037 mRNA level (RT-PCR, normalized to GAPDH) (AD037 mRNA [2])
1 | Cc1ccc2nc(NCCN)c3ncc(C)n3c2c1 [BMS-345541, 4(2′-aminoethyl)amino-1,8-dimethylimidazo(1,2-a) quinoxaline] | reduced to control levels | significantly inhibited |  | 
2 | IFN-γ: interferon-γ (Peprotech), fails to activate the NF-KB pathway |  |  | Little upregulation | 
3 | IL-17: IL-17 (R&D Systems) cytokine stimulus |  |  |  | No upregulation
4 | TNFα |  |  | upregulated | No upregulation
5 | IL-1α: IL-1α (Peprotech) cytokine stimulus (protein, UniProt P01583 113-271, looked up) Interleukin-1 alpha: SAPFSFLSNVKYNFMRIIKYEFILNDALNQSIIRANDQYLTAAALHNLDEAVKFDMGAYKSSKDDAKITVILRISKTQLYVTAQDEDQPVLLKEMPEIPKTITGSETNLLFFWETHGTKNYFTSVAHPNLFIATKQDYWVCLAGGPPSITDFQILENQA |  |  |  | No upregulation

— US20040086896A1, “Polynucleotides and polypeptides associated with the NF-kB pathway” (priority 2001, published 2004)
